Paper PMC11345841, “Exploring 2-Sulfonylpyrimidine Warheads as Acrylamide Surrogates for Targeted Covalent Inhibition: A BTK Story” (Journal of Medicinal Chemistry, 2024)
Where two headings read alike, the source gives them in different places.

Legend:
[1] = target: T1, EPHB2 (Homo sapiens, UniProt P29323); experiment: KINOMEscan ScanTK; assay type: binding
T1 construct: purchased Eurofins DiscoverX KINOMEscan (scanTK)
T1 sequence (P29323 19-1055): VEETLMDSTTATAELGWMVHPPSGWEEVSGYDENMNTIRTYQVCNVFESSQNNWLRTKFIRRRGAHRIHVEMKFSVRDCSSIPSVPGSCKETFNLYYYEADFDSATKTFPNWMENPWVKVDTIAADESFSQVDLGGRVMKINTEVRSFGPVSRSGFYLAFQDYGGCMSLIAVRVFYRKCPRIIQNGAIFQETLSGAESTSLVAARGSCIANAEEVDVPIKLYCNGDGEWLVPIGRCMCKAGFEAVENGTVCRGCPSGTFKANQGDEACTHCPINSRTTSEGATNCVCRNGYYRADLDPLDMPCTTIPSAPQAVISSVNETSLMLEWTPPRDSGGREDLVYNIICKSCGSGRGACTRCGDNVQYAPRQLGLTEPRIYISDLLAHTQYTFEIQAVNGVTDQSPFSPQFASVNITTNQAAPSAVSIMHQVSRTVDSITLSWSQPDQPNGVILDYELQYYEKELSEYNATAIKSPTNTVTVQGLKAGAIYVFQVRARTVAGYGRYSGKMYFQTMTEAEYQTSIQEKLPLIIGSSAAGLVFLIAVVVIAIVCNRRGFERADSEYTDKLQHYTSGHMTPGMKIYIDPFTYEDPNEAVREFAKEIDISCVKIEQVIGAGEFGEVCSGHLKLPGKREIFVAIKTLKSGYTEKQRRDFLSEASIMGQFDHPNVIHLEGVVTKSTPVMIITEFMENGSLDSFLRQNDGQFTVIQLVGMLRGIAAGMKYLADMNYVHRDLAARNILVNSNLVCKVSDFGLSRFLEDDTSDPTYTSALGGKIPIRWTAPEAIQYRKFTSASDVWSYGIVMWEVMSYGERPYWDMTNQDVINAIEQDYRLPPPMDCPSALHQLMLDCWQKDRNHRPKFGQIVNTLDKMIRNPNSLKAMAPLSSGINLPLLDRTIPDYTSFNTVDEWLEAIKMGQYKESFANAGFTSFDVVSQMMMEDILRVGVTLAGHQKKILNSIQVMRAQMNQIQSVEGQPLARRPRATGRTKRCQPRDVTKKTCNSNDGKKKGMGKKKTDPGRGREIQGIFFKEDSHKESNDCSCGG

[2] = target: T2, KIT(A829P) (Homo sapiens, UniProt P10721, A829P); experiment: KINOMEscan ScanTK; assay type: binding
T2 construct: purchased Eurofins DiscoverX KINOMEscan (scanTK)

[3] = target: T3, TRKA (Homo sapiens, UniProt P04629); experiment: KINOMEscan ScanTK; assay type: binding; details: TRKA
T3 construct: purchased Eurofins DiscoverX KINOMEscan (scanTK)

[4] = target: T4, EGFR(L858R,T790M) (Homo sapiens, UniProt P00533, L858R/T790M); experiment: KINOMEscan ScanTK; assay type: binding
T4 construct: purchased Eurofins DiscoverX KINOMEscan (scanTK)

[5] = target: T5, TNK2 (Homo sapiens, UniProt Q07912); experiment: KINOMEscan ScanTK; assay type: binding
T5 construct: purchased Eurofins DiscoverX KINOMEscan (scanTK)

[6] = target: T6, KIT(L576P) (Homo sapiens, UniProt P10721, L576P); experiment: KINOMEscan ScanTK; assay type: binding
T6 construct: purchased Eurofins DiscoverX KINOMEscan (scanTK)

[7] = tested on: TMD8 cells; experiment: RNA-seq gene expression; details: 8d versus Ibrutinib

T6 sequence (P10721 26-976 L576P): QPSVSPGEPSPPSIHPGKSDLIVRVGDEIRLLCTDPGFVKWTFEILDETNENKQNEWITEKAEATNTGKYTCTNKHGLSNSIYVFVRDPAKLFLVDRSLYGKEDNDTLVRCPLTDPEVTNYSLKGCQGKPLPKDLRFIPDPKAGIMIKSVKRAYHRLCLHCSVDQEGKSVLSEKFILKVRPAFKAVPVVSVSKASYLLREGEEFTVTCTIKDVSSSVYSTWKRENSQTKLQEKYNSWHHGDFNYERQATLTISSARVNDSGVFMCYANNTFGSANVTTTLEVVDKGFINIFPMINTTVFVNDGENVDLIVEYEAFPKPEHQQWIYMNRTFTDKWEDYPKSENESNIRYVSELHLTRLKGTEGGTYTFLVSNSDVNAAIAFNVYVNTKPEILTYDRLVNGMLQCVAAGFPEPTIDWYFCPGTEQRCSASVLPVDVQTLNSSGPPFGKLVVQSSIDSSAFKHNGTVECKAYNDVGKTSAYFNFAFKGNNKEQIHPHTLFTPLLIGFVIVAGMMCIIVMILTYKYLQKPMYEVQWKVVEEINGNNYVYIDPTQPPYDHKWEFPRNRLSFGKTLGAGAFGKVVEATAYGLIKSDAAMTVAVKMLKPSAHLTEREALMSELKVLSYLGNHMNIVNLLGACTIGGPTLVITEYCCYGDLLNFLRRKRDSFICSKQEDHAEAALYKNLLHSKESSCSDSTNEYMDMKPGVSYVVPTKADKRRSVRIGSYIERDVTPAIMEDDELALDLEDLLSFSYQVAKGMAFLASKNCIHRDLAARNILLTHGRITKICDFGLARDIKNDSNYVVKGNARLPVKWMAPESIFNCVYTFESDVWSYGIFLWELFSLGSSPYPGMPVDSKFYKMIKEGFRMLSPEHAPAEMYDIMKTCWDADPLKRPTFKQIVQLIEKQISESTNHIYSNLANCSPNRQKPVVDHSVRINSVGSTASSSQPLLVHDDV
T4 sequence (P00533 25-1210 T790M/L858R): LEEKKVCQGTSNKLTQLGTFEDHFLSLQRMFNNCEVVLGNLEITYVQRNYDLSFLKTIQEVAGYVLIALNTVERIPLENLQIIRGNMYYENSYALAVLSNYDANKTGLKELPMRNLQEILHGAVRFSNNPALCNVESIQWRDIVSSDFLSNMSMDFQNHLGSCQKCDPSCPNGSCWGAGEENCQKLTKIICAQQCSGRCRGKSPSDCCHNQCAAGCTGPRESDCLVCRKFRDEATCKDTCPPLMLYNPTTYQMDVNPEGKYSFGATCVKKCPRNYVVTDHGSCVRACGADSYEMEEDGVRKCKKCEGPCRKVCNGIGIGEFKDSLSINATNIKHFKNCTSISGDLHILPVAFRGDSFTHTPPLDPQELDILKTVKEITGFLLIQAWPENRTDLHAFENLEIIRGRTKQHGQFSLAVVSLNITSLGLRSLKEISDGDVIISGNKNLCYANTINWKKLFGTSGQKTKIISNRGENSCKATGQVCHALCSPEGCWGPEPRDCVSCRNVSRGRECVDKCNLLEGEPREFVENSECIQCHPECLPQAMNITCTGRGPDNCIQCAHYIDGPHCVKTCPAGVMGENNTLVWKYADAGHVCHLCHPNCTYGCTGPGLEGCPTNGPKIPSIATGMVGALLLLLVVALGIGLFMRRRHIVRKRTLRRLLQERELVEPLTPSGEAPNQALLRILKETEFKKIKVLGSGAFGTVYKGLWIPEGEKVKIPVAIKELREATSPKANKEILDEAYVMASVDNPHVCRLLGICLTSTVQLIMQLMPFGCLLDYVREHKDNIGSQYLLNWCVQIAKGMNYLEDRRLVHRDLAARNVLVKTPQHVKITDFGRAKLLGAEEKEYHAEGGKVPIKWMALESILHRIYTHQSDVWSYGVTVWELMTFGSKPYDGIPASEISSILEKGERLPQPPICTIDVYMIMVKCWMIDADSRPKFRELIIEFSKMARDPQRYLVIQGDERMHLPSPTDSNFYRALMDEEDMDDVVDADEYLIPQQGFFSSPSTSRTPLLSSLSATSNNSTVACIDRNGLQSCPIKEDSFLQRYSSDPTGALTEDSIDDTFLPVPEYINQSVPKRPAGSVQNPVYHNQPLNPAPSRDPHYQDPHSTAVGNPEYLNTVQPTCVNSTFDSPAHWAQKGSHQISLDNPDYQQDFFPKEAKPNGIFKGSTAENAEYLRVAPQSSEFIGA
T3 sequence (P04629 33-796): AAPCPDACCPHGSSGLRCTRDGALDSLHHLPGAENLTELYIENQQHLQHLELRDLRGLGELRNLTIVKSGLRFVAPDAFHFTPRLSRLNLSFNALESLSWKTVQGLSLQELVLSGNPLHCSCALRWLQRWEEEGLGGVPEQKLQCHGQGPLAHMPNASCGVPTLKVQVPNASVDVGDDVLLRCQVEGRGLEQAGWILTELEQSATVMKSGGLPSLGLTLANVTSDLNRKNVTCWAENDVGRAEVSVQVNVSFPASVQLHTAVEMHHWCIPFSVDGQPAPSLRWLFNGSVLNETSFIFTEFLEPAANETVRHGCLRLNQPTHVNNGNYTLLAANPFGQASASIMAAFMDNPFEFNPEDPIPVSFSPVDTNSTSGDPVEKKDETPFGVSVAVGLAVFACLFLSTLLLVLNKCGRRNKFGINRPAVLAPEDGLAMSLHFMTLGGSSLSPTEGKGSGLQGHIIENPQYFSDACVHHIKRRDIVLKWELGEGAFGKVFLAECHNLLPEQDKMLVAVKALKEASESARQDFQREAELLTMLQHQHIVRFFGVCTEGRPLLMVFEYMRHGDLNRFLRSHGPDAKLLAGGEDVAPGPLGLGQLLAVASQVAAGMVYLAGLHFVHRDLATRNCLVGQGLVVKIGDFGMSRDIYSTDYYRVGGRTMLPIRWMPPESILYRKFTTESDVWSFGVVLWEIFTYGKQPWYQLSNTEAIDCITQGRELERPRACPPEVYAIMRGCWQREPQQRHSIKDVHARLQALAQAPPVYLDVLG
T5 sequence (Q07912 whole entry): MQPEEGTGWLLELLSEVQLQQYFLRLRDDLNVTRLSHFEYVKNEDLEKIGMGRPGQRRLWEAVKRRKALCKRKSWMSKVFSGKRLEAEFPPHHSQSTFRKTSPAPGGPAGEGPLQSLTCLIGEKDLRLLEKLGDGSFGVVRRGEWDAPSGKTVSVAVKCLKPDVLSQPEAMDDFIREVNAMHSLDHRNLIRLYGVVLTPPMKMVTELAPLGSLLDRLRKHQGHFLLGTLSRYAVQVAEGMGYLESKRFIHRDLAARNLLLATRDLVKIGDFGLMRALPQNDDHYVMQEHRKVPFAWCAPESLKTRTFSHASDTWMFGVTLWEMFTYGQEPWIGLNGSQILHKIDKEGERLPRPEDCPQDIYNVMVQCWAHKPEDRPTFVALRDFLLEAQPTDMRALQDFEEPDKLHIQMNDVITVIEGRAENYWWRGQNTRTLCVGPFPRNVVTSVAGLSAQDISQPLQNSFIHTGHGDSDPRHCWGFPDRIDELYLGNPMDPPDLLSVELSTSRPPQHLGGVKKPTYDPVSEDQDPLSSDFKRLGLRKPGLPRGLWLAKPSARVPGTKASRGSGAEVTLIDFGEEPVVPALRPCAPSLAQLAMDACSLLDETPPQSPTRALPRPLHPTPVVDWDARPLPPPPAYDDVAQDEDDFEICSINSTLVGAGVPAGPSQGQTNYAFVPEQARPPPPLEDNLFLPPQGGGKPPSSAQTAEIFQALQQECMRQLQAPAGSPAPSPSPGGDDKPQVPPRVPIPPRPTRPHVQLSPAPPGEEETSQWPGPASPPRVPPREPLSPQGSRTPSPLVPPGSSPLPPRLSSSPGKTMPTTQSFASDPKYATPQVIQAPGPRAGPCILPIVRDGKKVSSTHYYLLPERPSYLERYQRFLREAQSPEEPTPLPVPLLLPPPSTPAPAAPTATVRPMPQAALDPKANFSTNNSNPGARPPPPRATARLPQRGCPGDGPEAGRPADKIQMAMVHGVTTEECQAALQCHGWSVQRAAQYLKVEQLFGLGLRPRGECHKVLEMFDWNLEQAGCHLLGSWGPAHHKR
T2 sequence (P10721 26-976 A829P): as the sequence (P10721 26-976 L576P) above, with P551L, A804P counted along it

CNC(=O)c1cnc(S(C)(=O)=O)nc1N1CCCC(n2nc(-c3ccc(Oc4ccccc4)cc3)c3c(N)ncnc32)C1 (centres unmarked) [Compound 8d, 4-(3-(4-Amino-3-(4-phenoxyphenyl)-1H-pyrazolo[3,4-d]pyrimidin-1-yl)piperidin-1-yl)-N-methyl-2-(methylsulfonyl)pyrimidine-5-carboxamide]
%Control difference from compound Ib at 1 µM ([1]; @1000nM): -1%
remaining binding at 1 µM ([1]; @1000nM, read-out: %Control): 99%
remaining binding at 1 µM ([1]; read-out: %Control @1000nM): 99%
remaining binding at 1 µM ([2]; @1000nM, read-out: %Control): 63%
remaining binding at 1 µM ([2]; read-out: %Control @1000nM): 63%
difference in % of control versus compound Ib at 1 µM ([3]; @1000nM): -2%
remaining binding at 1 µM ([3]; @1000nM, read-out: %Control): 83%
remaining binding at 1 µM ([3]; read-out: %Control @1000nM): 83%
difference in % of control versus compound Ib at 1 µM ([4]; @1000nM): 49%
remaining binding at 1 µM ([4]; @1000nM, read-out: %Control): 59%
remaining binding at 1 µM ([4]; read-out: %Control @1000nM): 59%
remaining binding at 1 µM ([5]; @1000nM, read-out: %Control): 100%
remaining binding at 1 µM ([5]; read-out: %Control @1000nM): 100%
difference in %Control versus Ib at 1 µM ([6]; @1000nM, read-out: % difference (compound - Ib %Control)): 13%
remaining binding at 1 µM ([6]; @1000nM, read-out: %Control): 45%
remaining binding at 1 µM ([6]; read-out: %Control @1000nM): 45%
Expr Log Ratio ([7]; ACTN4): 0.022
Expr Log Ratio ([7]; ACVR1C): -0.029
Expr Log Ratio ([7]; APC): 0.064
Expr Log Ratio ([7]; APOC1): -0.164
Expr Log Ratio ([7]; ARHGAP31): 0.01
Expr Log Ratio ([7]; ARNT2): 0.044
Expr Log Ratio ([7]; AURKA): -0.004
Expr Log Ratio ([7]; BLOC1S5): -0.004
Expr Log Ratio ([7]; BMPR2): 0.081
Expr Log Ratio ([7]; BRCA1): 0.248
Expr Log Ratio ([7]; BRD7): 0.035
Expr Log Ratio ([7]; BTRC): 0.281
Expr Log Ratio ([7]; CD80): -0.429
Expr Log Ratio ([7]; CDKN1A): -0.127
Expr Log Ratio ([7]; COL1A1): -0.248
Expr Log Ratio ([7]; CREBZF): -0.251
Expr Log Ratio ([7]; CREM): -0.036
Expr Log Ratio ([7]; CTR9): 0.099
Expr Log Ratio ([7]; CYB561A3): -0.04
Expr Log Ratio ([7]; DEF6): 0.017
Expr Log Ratio ([7]; DNM1L): 0.002
Expr Log Ratio ([7]; DTNBP1): 0.278
Expr Log Ratio ([7]; DTX1): -0.178
Expr Log Ratio ([7]; ECM1): 0.54
Expr Log Ratio ([7]; EHD1): -0.044
Expr Log Ratio ([7]; EIF2AK4): 0.093
Expr Log Ratio ([7]; EIF2B5): -0.104
Expr Log Ratio ([7]; ELAVL1): -0.071
Expr Log Ratio ([7]; ESR1): -0.045
Expr Log Ratio ([7]; ETS1): 0.064
Expr Log Ratio ([7]; FECH): 0.061
Expr Log Ratio ([7]; FGF2): 0.272
Expr Log Ratio ([7]; FGFR4): -0.062
Expr Log Ratio ([7]; FTO): -0.134
Expr Log Ratio ([7]; GLIS2): -0.228
Expr Log Ratio ([7]; GNB1): 0.033
Expr Log Ratio ([7]; GNB2): -0.086
Expr Log Ratio ([7]; GPI): -0.003
Expr Log Ratio ([7]; GPNMB): 0.582
Expr Log Ratio ([7]; GSTP1): -0.086
Expr Log Ratio ([7]; H1-2): -0.09
Expr Log Ratio ([7]; HDAC1): -0.011
Expr Log Ratio ([7]; HDAC8): -0.281
Expr Log Ratio ([7]; HNRNPAB): -0.136
Expr Log Ratio ([7]; HSF2): -0.15
Expr Log Ratio ([7]; HTATIP2): 0.03
Expr Log Ratio ([7]; IL1A): 0.332
Expr Log Ratio ([7]; ING1): -0.221
Expr Log Ratio ([7]; KDM6B): -0.137
